According to patent publication US20230105212A1, “BIPHENYL DERIVATIVE INHIBITOR, PREPARATION METHOD THEREFOR AND USE THEREOF” (SHANGHAI HANSOH BIOMEDICAL CO., LTD., priority 2020, published 2023):
Read-outs that look alike come from different tables or passages of the source.

Legend:
[1] = molecular target: T1, human PD-L1 protein (Homo sapiens, UniProt Q9NZQ7); assay: Thermal shift: melting temperature of PD-L1 protein; format: binding; conditions: read-out: ΔTm (° C.)
T1 construct: purchased Acro Biosystems PD1-H5229
Procedure: Test Embodiment 4. Test of Combination of the Compounds of the Present Disclosure to Improve the Stability (Melting Temperature) of PD-L1 Protein Experimental purpose: To test the ability of compounds to enhance the stability of PD-L1 protein and increase the melting temperature of the protein. Experimental method: […] A solution containing […] HEPES, SYPRO Orange, and 150 mM NaCl was prepared as experimental buffer, and human PD-L1 protein was added at a final concentration of 2 μM. […] PCR tube was put into the PCR machine, and the melt curve function was selected to detect the melting temperature of PD-L1 protein in different treatment groups (heated from 25° C. to 95° C., 0.03° C./s). The experimental data file of the PCR instrument was imported into the thermal shift software to obtain the melting temperature (Tm) of each treatment group, and the Tm of the DMSO vehicle control group was subtracted to obtain the change value (ΔTm) of the melting temperature, as shown in the following table: […]

[2] = molecular target: T2, PD-L1 protein on the surface of MC38-hPDL1 tumor cells (Homo sapiens, UniProt Q9NZQ7); assay: Induction of endocytosis of PD-L1 on the surface of tumor cells (flow cytometry); format: cell-based; conditions: 16 hours incubation; for Emax: MC38-hPDL1 cells, read-out: MC38 maximum endocytosis rate; for IC50: inducing endocytosis of PD-L1, MC38-hPDL1 cells, read-out: MC38 IC50
T2 construct: expressed in transfected cells; host or cells: MC38-hPDL1 (mouse colon cancer cells)
In short: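 IC50 comes from nonlinear fits of endocytosis rate, calculated from the loss of surface PE-anti-CD274 flow signal relative to vehicle. Cells were MC38 mouse colon cancer cells engineered to express high human PD-L1. Compound exposure lasted 16 h at 37 °C, 5% CO2.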

[3] = molecular target: T3, human PD-1/PD-L1 binding (Homo sapiens, UniProt Q9NZQ7); assay: Inhibition of human PD-1/PD-L1 binding (TR-FRET/HTRF); conditions: TR-FRET, PD-L1-His and PD-1-Fc; read-out: PD-1/PD-L1 binding IC50
T3 construct: PD-L1-His protein (19 to 238 amino acids) (Abcam #ab167713); purchased Abcam (PD-L1-His); R&D (PD-1-Fc) ab167713; 1086-PD
In short: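 PD-L1-His (aa 19–238, diluted to 10 nM) and PD-1-Fc (aa 25–167, diluted to 20 nM) incubated with compounds (10 μM or 1 μM top, 3-fold, 11 doses) 60 min at room temperature, then anti-6HIS Eu cryptate/anti-human IgG-XL665 added for 3 h RT or overnight 4 °C. HTRF 665/620 nm ratio gave inhibition and IC50.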

[4] = compound 10 μM, PD-L1 protein 2 μM, Tm minus DMSO vehicle control

T3 sequence (Q9NZQ7 19-238): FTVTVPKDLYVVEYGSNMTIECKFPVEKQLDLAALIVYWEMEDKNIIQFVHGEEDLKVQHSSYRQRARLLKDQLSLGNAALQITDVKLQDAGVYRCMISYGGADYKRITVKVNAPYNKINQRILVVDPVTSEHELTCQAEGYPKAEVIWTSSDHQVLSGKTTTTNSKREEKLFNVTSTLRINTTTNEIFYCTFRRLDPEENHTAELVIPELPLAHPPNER
T1 sequence (Q9NZQ7 19-238 limits assumed): as the sequence (Q9NZQ7 19-238) above
T2 sequence (Q9NZQ7 19-290): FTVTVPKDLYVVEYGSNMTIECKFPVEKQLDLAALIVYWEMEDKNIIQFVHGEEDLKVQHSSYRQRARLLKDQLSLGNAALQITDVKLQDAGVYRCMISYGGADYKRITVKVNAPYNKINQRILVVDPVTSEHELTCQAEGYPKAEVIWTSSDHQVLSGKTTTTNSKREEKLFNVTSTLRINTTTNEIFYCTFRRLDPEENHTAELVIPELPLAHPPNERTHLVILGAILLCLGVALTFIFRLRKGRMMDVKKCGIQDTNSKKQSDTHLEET

Row | ΔTm at 10 µM [1, 4] [°C] | Emax [2] [%] | IC50 [2] [nM] | IC50 [3] [nM] | Structure (SMILES) | ΔTm at 10 µM [1] [°C]
1 | 14 | 97 | 4.5 | 0.8 | COc1nc(-c2cccc(-c3cccc(NC(=O)c4nc5c(n4C)CCN(C)C5)c3Cl)c2Cl)ccc1CNCC(=O)O [Embodiment 138, ((6-(2,2′-Dichloro-3′-(1,5-dimethyl-4,5,6,7-tetrahydro-1H-imidazo[4,5-c]pyridine-2-carboxamido)-[1,1′-biphenyl]-3-yl)-2-methoxypyridin-3-yl)methyl)glycine] | –
2 | 13 | 97 | – | 2.8 | CCn1c(C(=O)Nc2cccc(-c3cccc(-c4ccc(CN5CC(C(=O)O)C5)c(OC)n4)c3Cl)c2Cl)nc2c1CCN(C)C2 [Embodiment 240, 1-((6-(2,2′-Dichloro-3′-(1-ethyl-5-methyl-4,5,6,7-tetrahydro-1H-imidazo[4,5-c]pyridine-2-carboxamido)-[1,1′-biphenyl]-3-yl)-2-methoxypyridin-3-yl)methyl)azetidine-3-carboxylic Acid] | –
3 | 11.3 | 93 | – | 6.4 | CCn1c(C(=O)Nc2cccc(-c3cccc(-c4ccc(CN[C@H]5CCOC[C@@H]5O)c(OC)n4)c3Cl)c2Cl)nc2c1CCN(C)C2 (relative stereo) [Embodiment 235, N-(2,2′-Dichloro-3′-(5-(((trans-3-hydroxytetrahydro-2H-pyran-4-yl)amino)methyl)-6-methoxypyridin-2-yl)-[1,1′-biphenyl]-3-yl)-1-ethyl-5-methyl-4,5,6,7-tetrahydro-1H-imidazo[4,5-c]pyridine-2-carboxamide] | –
4 | 10.2 | 93 | – | 4.4 | COc1nc(-c2cccc(-c3cccc(NC(=O)c4nc5c(n4C4CC4)CCN(C)C5)c3Cl)c2Cl)ccc1CN1CC(CO)C1 [Embodiment 245, 1-Cyclopropyl-N-(2,2′-dichloro-3′-(5-((3-(hydroxymethyl)azetidin-1-yl)methyl)-6-methoxypyridin-2-yl)-[1,1′-biphenyl]-3-yl)-5-methyl-4,5,6,7-tetrahydro-1H-imidazo[4,5-c]pyridine-2-carboxamide] | –
5 | 11.6 | 95 | – | 4.2 | COc1nc(-c2cccc(-c3cccc(NC(=O)c4nc5c(n4C)CCN(C)C5)c3Cl)c2Cl)ncc1CN[C@H]1CCOC[C@@H]1O (relative stereo) [Embodiment 228, N-(2,2′-Dichloro-3′-(5-(((trans-3-hydroxytetrahydro-2H-pyran-4-yl)amino)methyl)-4-methoxypyrimidin-2-yl)-[1,1′-biphenyl]-3-yl)-1,5-dimethyl-4,5,6,7-tetrahydro-1H-imidazo[4,5-c]pyridine-2-carboxamide] | –
6 | 11.9 | 95 | – | 4.9 | CCn1c(C(=O)Nc2cccc(-c3cccc(-c4ccc(CN5CC(CO)C5)c(OC)n4)c3Cl)c2Cl)nc2c1CCN(C)C2 [Embodiment 239, N-(2,2′-Dichloro-3′-(5-((3-(hydroxymethyl)azetidin-1-yl)methyl)-6-methoxypyridin-2-yl)-[1,1′-biphenyl]-3-yl)-1-ethyl-5-methyl-4,5,6,7-tetrahydro-1H-imidazo[4,5-c]pyridine-2-carboxamide] | –
7 | 11.2 | 95 | 1.5 | 4 | COc1cc(-c2cccc(-c3cccc(NC(=O)c4nc5c(n4C)CCN(C)C5)c3Cl)c2Cl)ccc1CNCCO [Embodiment 157, N-(2,2′-Dichloro-4″-(((2-hydroxyethyl)amino)methyl)-3″-methoxy-[1,1′:3′,1″-terphenyl]-3-yl)-1,5-dimethyl-4,5,6,7-tetrahydro-1H-imidazo[4,5-c]pyridine-2-carboxamide] | –
8 | 14 | 97 | 0.8 | 8.5 | COc1nc(-c2cccc(-c3cccc(NC(=O)c4nc5c(n4C)CCN(C)C5)c3Cl)c2Cl)ccc1CN1CC2(C1)CN(C(=O)C(F)F)C2 [Embodiment 190, N-(2,2′-Dichloro-3′-(5-((6-(2,2-difluoroacetyl)-2,6-diazaspiro[3.3]heptan-2-yl)methyl)-6-methoxypyridin-2-yl)-[1,1′-biphenyl]-3-yl)-1,5-dimethyl-4,5,6,7-tetrahydro-1H-imidazo[4,5-c]pyridine-2-carboxamide] | –
9 | 16.8 | 98 | 0.6 | 6.5 | COc1nc(-c2cccc(-c3cccc(NC(=O)c4nc5c(n4C)CCN(C)C5)c3Cl)c2Cl)ccc1CNC[C@@H](C)O [Embodiment 128, (R)—N-(2,2′-Dichloro-3′-(5-(((2-hydroxypropyl)amino)methyl)-6-methoxypyridin-2-yl)-[1,1′-biphenyl]-3-yl)-1,5-dimethyl-4,5,6,7-tetrahydro-1H-imidazo[4,5-c]pyridine-2-carboxamide] | –
10 | 13.2 | 96 | – | 7.9 | COc1nc(-c2cccc(-c3cccc(NC(=O)c4nc5c(n4C)CCN(C)C5)c3Cl)c2Cl)ccc1CN1CC2(CCN(C(C)=O)CC2)C1 [Embodiment 194, N-(3′-(5-((7-Acetyl-2,7-diazaspiro[3.5]nonan-2-yl)methyl)-6-methoxypyridin-2-yl)-2,2′-dichloro-[1,1′-biphenyl]-3-yl)-1,5-dimethyl-4,5,6,7-tetrahydro-1H-imidazo[4,5-c]pyridine-2-carboxamide] | –
11 | 10.2 | 93 | – | 5.3 | COc1nc(-c2cccc(-c3cccc(NC(=O)c4nc5c(n4C)CCN(C)C5)c3Cl)c2Cl)ccc1CNC1CCOCC1C(=O)O (centres unmarked) [Embodiment 214, 4-(((6-(2,2′-Dichloro-3′-(1,5-dimethyl-4,5,6,7-tetrahydro-1H-imidazo[4,5-c]pyridin-2-carboxamido)-[1,1′-biphenyl]-3-yl)-2-methoxypyridin-3-yl)methyl)amino)tetrahydro-2H-pyran-3-carboxylic Acid] | –
12 | 11.3 | 95 | – | 1.8 | COc1nc(-c2cccc(-c3cccc(NC(=O)c4nc5c(n4C)CCN(C)C5)c3Cl)c2Cl)ccc1CN1CCCC[C@H]1C(=O)O [Embodiment 230, (S)-1-((6-(2,2′-Dichloro-3′-(1,5-dimethyl-4,5,6,7-tetrahydro-1H-imidazo[4,5-c]pyridine-2-carboxamido)-[1,1′-biphenyl]-3-yl)-2-methoxypyridin-3-yl)methyl)piperidine-2-carboxylic Acid] | –
13 | 10.7 | 90 | – | 7.1 | COc1nc(-c2cccc(-c3cccc(NC(=O)c4nc5c(n4C)CCN(C)C5)c3Cl)c2Cl)ccc1CN1C2CC1CN(C(C)=O)C2 [Embodiment 209, N-(3′-(5-((3-Acetyl-3,6-diazabicyclo[3.1.1]heptan-6-yl)methyl)-6-methoxypyridin-2-yl)-2,2′-dichloro-[1,1′-biphenyl]-3-yl)-1,5-dimethyl-4,5,6,7-tetrahydro-1H-imidazo[4,5-c]pyridine-2-carboxamide] | –
14 | 10.5 | – | – | 2.3 | COc1cc(C(=O)Nc2cccc(-c3cccc(NC(=O)c4nc5c(n4C)CCN(C)C5)c3Cl)c2C)ncc1CN[C@@H]1CONC1=O [Embodiment 96, (R)—N-(2-Chloro-3′-(4-methoxy-5-(((3-carbonylisoxazolidin-4-yl)amino)methyl)picolinamido)-2′-methyl-[1,1′-biphenyl]-3-yl)-1,5-dimethyl-4,5,6,7-tetrahydro-1H-imidazo[4,5-c]pyridine-2-carboxamide] | –
15 | 12.1 | 94 | – | – | CCC(=O)N1CCN(Cc2ccc(-c3cccc(-c4cccc(NC(=O)c5nc6c(n5C)CCN(C)C6)c4Cl)c3Cl)nc2OC)CC1 [Embodiment 201, N-(2,2′-Dichloro-3′-(6-methoxy-5-((4-propionylpiperazin-1-yl)methyl)pyridin-2-yl)-[1,1′-biphenyl]-3-yl)-1,5-dimethyl-4,5,6,7-tetrahydro-1H-imidazo[4,5-c]pyridine-2-carboxamide] | –

Row | Structure (SMILES) | ΔTm at 10 µM [1, 4] [°C] | Emax [2] [%] | IC50 [2] [nM] | IC50 [3] [nM] | ΔTm at 10 µM [1] [°C]
16 | COc1nc(-c2cccc(-c3cccc(NC(=O)c4nc5c(n4C)CCN(C)C5)c3Cl)c2Cl)ccc1CN1CC[C@H]1C(=O)O [Embodiment 171, (S)-1-((6-(2,2′-Dichloro-3′-(1,5-dimethyl-4,5,6,7-tetrahydro-1H-imidazo[4,5-c]pyridine-2-carboxamido)-[1,1′-biphenyl]-3-yl)-2-methoxypyridin-3-yl)methyl)azetidine-2-carboxylic acid] | – | 93 | – | 0.9 | 10.3
